The nature of this data set: Acute toxicity (LD50) in mice after intravenous injection into the tail vein, survival after 7 days. As to conditions: in vivo, mouse, i.v. tail vein, pH 7-7.5, survival after 7 days. As to the method:
Mice weighing 18-22 g were given varying quantities of the compound as a […] aqueous solution per kg, adjusted to pH 7-7.5 by intravenous injection into the tail vein. After 7 days, the survival rate of the mice was determined and, from this value, the LD50 in mmol/kg of animal was calculated in the usual way.
(J. Comput. Assist. Tomogr. 7, 1983, 184.)
On to `CC1(C)CC(C(=O)NC(CO)C(O)CO)C(C)(C)N1[O]` (centres unmarked) [Compound 5, 2,2,5,5-Tetramethylpyrrolidine-1-oxyl-3-carboxylic Acid (1,3,4-Trihydroxybut-2-yl)amide], for which the LD50 at 168 h was found to be 25000 µmol/kg.

For the molecule `CC1(C)CC(C(=O)O)C(C)(C)N1[O]` (centres unmarked) [Compound 2, 2,2,5,5-Tetramethylpyrrolidine-1-oxyl-3-carboxylic Acid, reference compound], the LD50 at 168 h was 10000 µmol/kg.

With `CC1(C)C=C(C(=O)NCC(O)CO)C(C)(C)N1[O]` (centres unmarked) [Compound 4, 2,2,5,5-Tetramethyl-3-pyrroline-1-oxyl-3-carboxylic Acid (2,3-Dihydroxypropyl)amide], the LD50 at 168 h stood at 15000 µmol/kg.

As to `CC1(C)C=C(C(=O)NC(CO)C(O)CO)C(C)(C)N1[O]` (centres unmarked) [Compound 3, 2,2,5,5-Tetramethyl-3-pyrroline-1-oxyl-3-carboxylic Acid (1,3,4-Trihydroxybut-2-yl)amide], the 50% lethal dose (LD50) at 168 h was 20000 µmol/kg.

With `CC1(C)CC(NC(=O)CCC(=O)O)CC(C)(C)N1[O]` [Compound 1, Succinic Acid (2,2,6,6-tetramethyl-1-oxylpiperidin-4-yl)-amide, reference compound], the LD50 at 168 h was 10000 µmol/kg.

Values taken from patent US4925652A, “Nitroxyl compounds, and diagnostic media based thereon useful for enhancing NmR imaging” (Schering Aktiengesellschaft, priority 1983, dated 1990).
